These results are taken from patent EP0840781B1, “METHODS AND DEVICES FOR THE REMOVAL OF PSORALENS FROM BLOOD PRODUCTS” (Cerus Corporation, priority 1995, dated 1996).

The test system of data set [1] is R17. Description: r-17 bacteriophage assay: R17 treated with compound and UVA, remaining titer by plaque count on Hfr 3000 bacteria. The class given is cell-based. The settings on record: 32 µM; 1 Minute Irradiation; Starting Titer Approx. 7.5 Logs (Table 6). The protocol:
In the r-17 assay, the bacteriophage was placed in a solution with each compound tested and was then irradiated. The ability of the phage to subsequently infect bacteria and inhibit their growth was measured. The bacteriophage was selected for its relatively accessible nucleic acid such that the culture growth inhibition would accurately reflect nucleic acid damage by the test compounds. The bacteriophage assay for nucleic acid binding to test compounds offers a safe and inexpensive procedure to identify compounds likely to display efficient pathogen inactivation. Previous experiments support that the r-17 assay accurately measures HIV-1 sensitivity to similar compounds. […] Modified Eagles Medium (DMEM) to a final phage concentration of 10^9/mL. An aliquot (0.5 mL) was transferred to a 1.5 mL snap-top polyethylene tube. […] Louis, MO). The tubes were placed in a light device as described in EXAMPLE 1 and irradiated for between 1 and 10 minutes. […] To make the dilutions. a 0.100 mL aliquot of the irradiated solution of phage and test compound was added to the first dilution tube of 0.4 mL of media then 0.020 mL of this solution was added to the second tube of 0.5 mL medium (1:25). […] After the top agar hardened, the plates were incubated at 37 °C overnight. The plaque forming units were then counted the following morning and the titer of the phage remaining after phototreatment was calculated based on the dilution factors. The following controls were run: the "phage only" in which phage was not treated with test compound and not irradiated (listed as "starting titer" in the tables below); the "UV only" in which the phage was irradiated in the absence of test compound; and the "dark" control in which the phage/test compound solution was not irradiated before it was diluted and plated. Compounds described herein were also tested at a constant concentration for varying doses of UV light. […] The compound tested was added at the desired concentration and the samples were vortexed. […] Between each 1.0 J/cm^2 intervals, 100µL was removed from each sample and placed in the first corresponding dilution tube, then five sequential dilutions were performed for each compound tested, at all 3 irradiation doses, as described above in this example. […] The contents of each tube was poured into its own LB plate and the plates were incubated overnight at 37 °C. Plaques were counted by visual inspection the following morning.

The test system of data set [2] is Pseudomonas. Description: Bacterial inactivation by compound plus UVA, colony forming units. The note with it: 16 µM; 5 J/cm^2 irradiation; starting titer 6.5 logs. The class given is cell-based. The method, then: In this example bacterial inactivation by the photoreactive nucleic acid binding compounds described herein was measured as a function of the ability of the bacteria to subsequently replicate. A gram negative bacteria was chosen as representative of the more difficult bacterial strains to inactivate.
The bacteria a strain of Pseudomonas, was inoculated into LB with a sterile loop and grown overnight in a shaker at 37°C. Based on the approximation that one OD at 610 nm is equivalent to 5 x 10^8 colony forming units (cfu)/mL, a 1:10 dilution of the culture was measured on a spectrophotometer. (manufactured by Shimatsu). The bacterial culture was added to a solution of 15% fetal bovine serum in DMEM to a final bacteria concentration of approximately 10^6/mL. An aliquot (0.8 mL) was transferred to a 1.5 mL snap-top polyethylene tube. An aliquot (0.004-0.040 mL) of the test compound stock solution prepared in water, ethanol or dimethylsulfoxide at 0.80-8.0 mM was added to the tube. Compounds were tested at a concentration of 16 µM. The tubes were placed in a light device as described in EXAMPLE I and irradiated with 1.3 J/cm^2, 1.2 J/cm^2, and finally 2.5 J/cm^2, for a total of 5 J/cm^2. 150 µL were removed for testing after each pulse period. Sterile 13 mL dilution tubes were prepared; each test compound required one tube with 0.4 mL of LB broth and four tubes containing 0.5 mL of LB broth. To make the dilutions, a 0.050 mL aliquot of the irradiated solution of phage and test compound was added to the first dilution tube of […] of media then 0.050 mL of this solution was added to the second tube of 0.5 mL medium (1:10). The second solution was then diluted serially (1:10) into the remaining tubes. 100 µL of the original sample and each dilution are plated separately onto LB agar plates and incubated at 37 °C overnight. The colony forming units were then counted the following morning and the titer of the phage remaining after phototreatment was calculated based on the dilution factors.
The following controls were run: the "bacteria only" in which bacteria was not treated with test compound and not irradiated (listed as "starting titer" in the tables below); the "UV only" in which the bacteria was irradiated in the absence of test compound. Dark controls were not performed here for reasons set forth in Example 12 above.

The test system of data set [3] is Salmonella typhimurium tester strains TA97a, TA98, TA100, TA102, TA1537 and TA1538. The settings on record: two-fold or greater increase in revertants above background and dose dependent response; TA100, TA102. An excerpt: The second property that is important in testing a compound for use in methods described herein is mutagenicity. The most widely used mutagen/carcinogen screening assay is the Ames test. This assay is described by D.M. Maron and B.N. Ames in Mutation Research 113:173 ( 1983) and a specific screen is described in detail in Example 17, below. The Ames test utilizes several unique strains of Salmonella typhimurium that are histidine- dependent for growth and that lack the usual DNA repair enzymes. The frequency of normal mutations that render the bacteria independent of histidine (i.e., the frequency of spontaneous revertants) is low. The test allows one to evaluate the impact of a compound on this revenant frequency.
Because some substances are not mutagenic by themselves, but are converted to a mutagen by metabolic action, the compound to be tested is mixed with the bacteria on agar plates along with the liver extract. The liver extract serves to mimic metabolic action in an animal.
The mixtures are allowed to incubate. Growth of bacteria (if any) is checked by counting colonies.
In this example the compounds described herein are tested for their dark mutagenicity using an Ames assay. The procedures used for the Salmonella mutagenicity test as described in detail by Maron and Ames were followed exactly. Maron, D.M. and B.N. Ames, Mutation Research 113: 173 ( 1983). A brief description for each procedure is given here. The tester strains TA97a, TA98, TA 100, TA102, TA1537 and TA1538 were obtained from Dr. Ames. TA97a, TA98, TA1537 and TA1538 are frameshift tester strains. TA100 and TA102 are base-substitution tester strains. Upon receipt each strain was cultured under a variety of conditions to confirm the genotypes specific to the strains.
The first tests done with the strains were to determine the range of spontaneous reversion for each of the strains. With each mutagenicity experiment the spontaneous reversion of the tester strains to histidine independence was measured and expressed as the number of spontaneous revertants per plate. This served as the background controls.
For all experiments, the pre-incubation procedure was used. In this procedure one vial of each tester strain was thawed and 20 µL of this culture was added to 6 mL of Oxoid Nutrient Broth #2. This solution was allowed to shake for 10 hours at 37°C. In the pre-incubation procedure, 0.1 mL of this overnight culture was added to each of the required number of sterile test tubes. To half of the tubes 0.5 mL of a 10% S-9 solution containing Aroclor 1254 induced rat liver extract (Molecular Toxicology Inc., Annapolis, MD), and MgCl2, KCl, glucose-6-phosphate, NADP, and sodium phosphate buffer (Sigma, St. Louis, Missouri) were added. To the other half of the tubes 0.5 mL of 0.2M sodium phospate buffer, pH 7.4, was used in place of the S-9 mixture (the - S9 samples). Finally 0.1 mL of the test solution containing either 0, 0.1, 0.5, 1, 5, 10, 50, 100, 250, or 500 µg/mL of the test compound was added. The 0.7 mL mixture was vonexed and then pre-incubated while shaking for 20 minutes at 37°C. After shaking, 2 mL of molten top agar supplemented with histidine and biotin were added to the 0.7 mL mixture and immediately poured onto a minimal glucose agar plate (volume of base agar was 20 mL). The top agar was allowed 30 minutes to solidify and then the plates were inverted and incubated for 44 hours at 37°C. After incubation the number of revertant colonies on each plate were counted.
Maron and Ames (1983) describe the conflicting views with regard to the statistical treatment of data generated from the test.

A short description of data set [4]: HPLC retention time as rough estimate of hydrophobicity. Type of data set: physicochemical. The note with it: C-18 reversed phase column, methanol / 25 mM KH2PO4 pH 3.5 gradient. The method, then: Adsorption data were then obtained by HPLC. analysis on the test and control samples. Specifically, a 200 µl sample volume of PC was removed from each tube following the incubation period (special care being taken to ensure that no adsorbent particles were removed with the test samples). […] The addition of methanol lyses platelets and precipitates plasma proteins so that psoralen contained within the platelets is not excluded by the assay.
Since each of the psoralens were analyzed using the same type of HPLC assay, one can use the psoralens' relative retention times to rank them according to increasing hydrophobicity. […] Strong interactions with cells or plasma proteins could compete with adsorption, thereby interfering with resin binding.

As for `COc1c2occc2cc2ccc(=O)oc12` [Compound 8-MOP, 8-Methoxypsoralen, reference compound], in data set [1], the “R17 log kill (32 µM)” value turned out to be 0. For the same compound, the “log kill of bacteria (Pseudomonas)” value in data set [2] is recorded as 1.9 logs. The “base-substitution mutagenicity (Ames, summary)” value in data set [3] is recorded as “weak base-substitution mutagen in TA102 at 500µg/plate”.
For `CC[N+](CC)(CC)Cc1c(C)oc2c(C)c3oc(=O)cc(C)c3cc12` [Psoralen A, 4'-(triethylamino) methyl-4,5',8-trimethylpsoralen], the “HPLC retention time (rough estimate of hydrophobicity)” value (“HPLC retention time” for short) in data set [4] was 7.8 min.
With `COc1c2occc2c(Br)c2ccc(=O)oc12` [Psoralen B, 5-bromo-8-methoxypsoralen], the “HPLC retention time” value in data set [4] is recorded as 20.0 min.
`CCN(CC)CCCOc1c2occc2c(Br)c2ccc(=O)oc12` [Psoralen C, 5-bromo-8-(diethylaminopropyloxy)-psoralen]: the “HPLC retention time” value in data set [4] was 12.0 min.
